Patent publication US20250084087A1, “BICYCLIC HETEROCYCLES AS MRGPRX2 ANTAGONISTS” (Incyte Corporation, priority 2023, published 2025)

Key:
Type in all cases: cell-based
MRGPRX2 [1] = target: T1, MRGPRX2 (Homo sapiens, UniProt Q96LB1); assay: MRGPRX2 FLIPR calcium mobilization assay; parameters: host or cells: CHO-K1; conditions: CHO-K1 cells stably expressing human MRGPRX2; Ca2+ release; agonist Cortistatin-14 at EC80
T1 sequence (Q96LB1 1-330): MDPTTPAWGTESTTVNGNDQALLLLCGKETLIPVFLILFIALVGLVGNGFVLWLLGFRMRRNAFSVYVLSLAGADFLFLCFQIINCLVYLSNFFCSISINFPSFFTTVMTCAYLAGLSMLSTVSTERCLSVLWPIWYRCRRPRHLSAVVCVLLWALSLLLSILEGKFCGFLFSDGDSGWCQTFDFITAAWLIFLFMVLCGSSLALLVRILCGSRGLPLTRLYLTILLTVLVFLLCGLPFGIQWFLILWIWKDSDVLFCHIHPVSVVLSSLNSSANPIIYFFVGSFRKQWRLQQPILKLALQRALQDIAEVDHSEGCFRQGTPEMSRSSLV
How it was run: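 CHO-K1 cells stably expressing the receptor, loaded with Calcium 6 dye, then preincubated 30 min at r.t. with compound in HBSS/20 mM HEPES pH 7.4. Cortistatin-14 at EC80 added; baseline-adjusted maximum RFU read over 110 s. IC50 from 3- or 4-parameter Hill fit.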

MRGPRX2 [2] = target: T1, MRGPRX2; assay: MRGPRX2 IP1 HTRF assay; parameters: host or cells: CHO-K1; conditions: CHO-K1 cells stably expressing human MRGPRX2; IP1 accumulation; agonist Cortistatin 14 1 μM
How it was run: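 CHO-K1 cells stably expressing human MRGPRX2, preincubated with compound 1 h at 37 °C, then stimulated with 1 μM Cortistatin 14 for 1 h. IP1 measured by HTRF against standard curve, normalized to DMSO and reference antagonist controls; IC50 from 3- or 4-parameter Hill fit.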

MRGPRX2 [3] = target: T1, MRGPRX2; assay: MRGPRX2 β-Arrestin recruitment assay (PathHunter); parameters: host or cells: CHO-K1 (PathHunter); conditions: PathHunter CHO-K1 MRGPRX2 β-Arrestin cell line; agonist Cortistatin 14 0.25 μM
How it was run: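 CHO-K1 PathHunter cells co-expressing ProLink-tagged MRGPRX2 and enzyme-acceptor-tagged β-arrestin were preincubated with compound 1 h at 37° C., then stimulated with cortistatin-14 (0.25 μM final) for 90 min. Enzyme-complementation luminescence read after 1 h detection; data normalized to DMSO and reference antagonist, IC50 from 3- or 4-parameter Hill fit.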

| IC50 (MRGPRX2 [1]) [nM] | IC50 (MRGPRX2 [2]) [nM] | IC50 (MRGPRX2 [3]) [nM] | SMILES |
| --- | --- | --- | --- |
| 0.1 to 100 | 0.1 to 100 | 0.1 to 100 | CCc1cc(NCC2(c3ccc(F)cc3)CN(C(N)=O)C2)n2nc(C(F)(F)F)cc2n1 [Example 68, 3-(((5-Ethyl-2-(trifluoromethyl)pyrazolo[1,5-a]pyrimidin-7-yl)amino)methyl)-3-(4-fluorophenyl)azetidine-1-carboxamide] |
| 0.1 to 100 | 100 to 1000 | 100 to 1000 | NS(=O)(=O)N1CC(CNc2cc(C(F)(F)F)nc3cc(C4CC4)nn23)(n2cccn2)C1 [Example 94, 3-(((2-Cyclopropyl-5-(trifluoromethyl)pyrazolo[1,5-a]pyrimidin-7-yl)amino)methyl)-3-(1H-pyrazol-1-yl)azetidine-1-sulfonamide] |
| 0.1 to 100 | 0.1 to 100 | 0.1 to 100 | O=C(N[C@H]1CC[C@H](O)CC1)N1CC(CNc2cc(C(F)(F)F)nc3cc(Br)nn23)(c2ccc(F)cc2)C1 [Example 96, 3-(((2-Bromo-5-(trifluoromethyl)pyrazolo[1,5-a]pyrimidin-7-yl)amino)methyl)-3-(4-fluorophenyl)-N-((1r,4r)-4-hydroxycyclohexyl)azetidine-1-carboxamide] |
| 0.1 to 100 | 0.1 to 100 | 0.1 to 100 | COc1cc(NCC2(c3ccc(F)cc3)CN(S(N)(=O)=O)C2)n2nc(C(F)(F)F)cc2n1 [Example 106, 3-(4-Fluorophenyl)-3-(((5-methoxy-2-(trifluoromethyl)pyrazolo[1,5-a]pyrimidin-7-yl)amino)methyl)azetidine-1-sulfonamide] |
